Molecules are shown by their SMILES.

The subject of assay [1] is KRas-mediated phosphorylation of ERK in H2009 cells. The experiment in a line: Inhibition of KRas-mediated phosphorylation of ERK (Cisbio HTRF pERK), H2009 cells. The following applies: Homo sapiens, NCI-H2009. Format: cell-based. The procedure: Inhibition of KRas Phosphorylation of ERK (HTRF) by Exemplary Compounds of Formula (I)
Cisbio HTRF Advanced PERK Assay Catalog #64AERPEH
1. To harvest cells from flask using 0.05% Trypsin/EDTA solution. Add 10 mL of media to stop trypsinizing. Pipette the cells into a conical bottom 50 mL centrifuge tube and centrifuge 5 min×1000 rpm.
2. Re-suspend the cell pellet in media, take a cell count, and then adjust the cell density using fresh media.
3. Seed 6,000 cells into cell culture plate with 50 μL media. […]
4. Incubate cell plate overnight in a 37° C., 5% CO2 incubator.
1. Use Tecan to complete the compound addition. Compounds start from 10 uM top, 3-fold dilution, and 10 doses. The final DMSO concentration is 0.8%. Dispensed 0.2 uM Trametinib as Min control.
2. Incubate cell plate for 3 hrs in the incubator.
Detection with Cisbio pERK HTRF Kit
1. Dilute 1 volume of 4× lysis buffer with 3 volumes of deionized water. Then, add 100× the blocking reagent. Keep lysis buffer on the ice.
2. At the end of the compound treatment, flick-off the media.
3. Add 35 μL of lysis buffer per well using a Multidrop Combi. Then place on a plate agitator shaking at 300 rpm at 4° C. for 40 mins.
4. Make up the HTRF antibody buffer. For each assay plate, mix 50 μL of d2-conjugate antibody with 950 μL of detection buffer. Similarly, mix 50 μL of Cryptate antibody with 950 μL of detection buffer. Then mix the two diluted antibodies together.
5. Dispense 3.4 μL the antibody buffer to wells of an empty assay plate. Seal the plate and centrifuge plate 30 sec×1000 rpm.
6. At the end of the 4° C. lysis, centrifuge the lysate plates 3 mins×1500 rpm.
7. Use the Bravo to transfer 13.6 μL of lysate from cell culture plate to assay plate. Then incubate assay plate for 2 hrs at room temperature.
8. At the end of incubation, read plate on the Envision after centrifuging plate 30 sec×1000 rpm.
Background: In TR-FRET formats the signal depends on donor and acceptor labels being close together.

The subject of assay [2] is KRas-mediated phosphorylation of ERK in H460 cells. The experiment in a line: Inhibition of KRas-mediated phosphorylation of ERK (Cisbio HTRF pERK), H460 cells. Type of assay: cell-based. The conditions noted are these: Homo sapiens, NCI-H460, HTRF pERK. The method in brief:
(§1)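 Compound treatment lasts 3 hrs on 6,000 seeded cells, testing 10 doses from a 10 uM top concentration in 3-fold decrements at 0.8% final DMSO. Trametinib at 0.2 uM defines the Min signal. Detection is HTRF on cold-lysed cell extracts.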

In assay [3] the test system is KRas-mediated phosphorylation of ERK in H727 cells. The experiment in a line: Inhibition of KRas-mediated phosphorylation of ERK (Cisbio HTRF pERK), H727 cells. Format: cell-based. The following applies: Homo sapiens, NCI-H727, H727 cells; HTRF pERK. The method in brief:
as §1

Assay [4] concerns KRas-mediated phosphorylation of ERK in MKN1 cells. Put plainly: Inhibition of KRas-mediated phosphorylation of ERK (Cisbio HTRF pERK), MKN1 cells. Format: cell-based. The following applies: Homo sapiens, MKN-1. A digest of the protocol:
(§2)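 Day 1 seeding: 6,000 cells per well, RPMI/10% FBS, left overnight at 37° C. with 5% CO2. Plates then stood covered for 4 h at room temperature prior to HTRF detection of pERK.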

The target of assay [5] is T1, KRas^G12V (Homo sapiens, UniProt P01116, G12V).
T1 construct: Biotinylated KRas (corresponding to amino acids 1-169, produced at Accelegan Inc.); biotin (biotinylated); purchased Accelegan Inc
T1 sequence (P01116 1-169 isoform P01116-2 G12V): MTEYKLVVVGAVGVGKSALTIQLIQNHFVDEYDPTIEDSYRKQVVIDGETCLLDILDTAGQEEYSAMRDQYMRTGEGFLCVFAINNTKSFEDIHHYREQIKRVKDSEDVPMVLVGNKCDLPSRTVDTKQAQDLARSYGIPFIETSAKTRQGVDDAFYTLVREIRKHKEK
Put plainly: KRas binding assay (TR-FRET tracer displacement), KRas G12V.

The test system of assay [6] is KRas-mediated phosphorylation of ERK in AsPC-1 cells. The experiment in a line: Inhibition of KRas-mediated phosphorylation of ERK (Cisbio HTRF pERK), AsPC-1 cells. Format: cell-based. The following applies: Homo sapiens, ASPC1, AsPC-1 cells; HTRF pERK. A digest of the protocol: as §1
Assay [7] deals with KRas-mediated phosphorylation of ERK in A549 cells. The experiment in a line: Inhibition of KRas-mediated phosphorylation of ERK (Cisbio HTRF pERK), A549 cells. Type of assay: cell-based. The following applies: Homo sapiens, HTRF pERK. The method in brief: (§3)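 Each compound was tested at 10 concentrations, threefold apart with 10 uM the highest, for 3 hrs on 6,000 seeded cells; final DMSO was 0.8% and Trametinib (0.2 uM) served as Min control. Lysed cells were analysed for pERK by HTRF.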

In assay [8] the test system is KRas-mediated phosphorylation of ERK in PSN1 cells. Put plainly: Inhibition of KRas-mediated phosphorylation of ERK (Cisbio HTRF pERK), PSN1 cells. The following applies: Homo sapiens. Format: cell-based. The method in brief:
as §2

The target of assay [9] is T2, KRas^G12D (Homo sapiens, UniProt P01116, G12D).
T2 construct: Biotinylated KRas (corresponding to amino acids 1-169, produced at Accelegan Inc.); biotin (biotinylated); purchased Accelegan Inc
T2 sequence (P01116 1-169 isoform P01116-2 G12D): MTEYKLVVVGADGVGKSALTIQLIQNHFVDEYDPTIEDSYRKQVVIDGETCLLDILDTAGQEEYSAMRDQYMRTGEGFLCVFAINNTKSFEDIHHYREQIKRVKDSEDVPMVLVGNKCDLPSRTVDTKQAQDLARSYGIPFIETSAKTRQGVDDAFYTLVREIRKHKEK
Put plainly: KRas binding assay (TR-FRET tracer displacement), KRas G12D.

Assay [10] concerns KRas-mediated phosphorylation of ERK in HCT116 cells. Put plainly: Inhibition of KRas-mediated phosphorylation of ERK (Cisbio HTRF pERK), HCT116 cells. Format: cell-based. The conditions noted are these: Homo sapiens, HCT-116, HTRF pERK. A digest of the protocol: as §3
For assay [11], the system named is KRas-mediated phosphorylation of ERK in H358 cells. Put plainly: Inhibition of KRas-mediated phosphorylation of ERK (Cisbio HTRF pERK), H358 cells. The following applies: Homo sapiens, NCI-H358, HTRF pERK. Type of assay: cell-based. A digest of the protocol: as §1
The target in assay [12] is T3, KRas^G12R (Homo sapiens, UniProt P01116, G12R).
T3 construct: Biotinylated KRas (corresponding to amino acids 1-169, produced at Accelegan Inc.); biotin (biotinylated); purchased Accelegan Inc
T3 sequence (P01116 1-169 isoform P01116-2 G12R): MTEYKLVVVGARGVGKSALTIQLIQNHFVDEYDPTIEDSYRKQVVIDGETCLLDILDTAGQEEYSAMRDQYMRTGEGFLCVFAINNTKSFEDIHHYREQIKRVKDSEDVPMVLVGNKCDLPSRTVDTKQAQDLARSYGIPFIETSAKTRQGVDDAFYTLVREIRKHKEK
The experiment in a line: KRas binding assay (TR-FRET tracer displacement), KRas G12R.

Assay [13] has as its target T4, KRas^G12C (Homo sapiens, UniProt P01116, G12C).
T4 construct: Biotinylated KRas (corresponding to amino acids 1-169, produced at Accelegan Inc.); biotin (biotinylated); purchased Accelegan Inc
The experiment in a line: KRas binding assay (TR-FRET tracer displacement), KRas G12C. The conditions noted are these: TR-FRET tracer displacement, KRas G12C.

The target in assay [14] is T5, KRas^G12S (Homo sapiens, UniProt P01116, G12S).
T5 construct: Biotinylated KRas (corresponding to amino acids 1-169, produced at Accelegan Inc.); biotin (biotinylated); purchased Accelegan Inc
T5 sequence (P01116 1-169 isoform P01116-2 G12S): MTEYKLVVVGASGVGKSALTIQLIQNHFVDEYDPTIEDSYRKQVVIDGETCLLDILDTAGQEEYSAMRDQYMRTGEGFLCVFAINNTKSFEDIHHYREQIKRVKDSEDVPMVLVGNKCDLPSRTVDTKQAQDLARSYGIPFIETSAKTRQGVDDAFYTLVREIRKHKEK
The experiment in a line: KRas binding assay (TR-FRET tracer displacement), KRas G12S. The following applies: TR-FRET tracer displacement, KRas G12S.

Assay [15] concerns the target T6, KRas^G12A (Homo sapiens, UniProt P01116, G12A).
T6 construct: Biotinylated KRas (corresponding to amino acids 1-169, produced at Accelegan Inc.); biotin (biotinylated); purchased Accelegan Inc
The experiment in a line: KRas binding assay (TR-FRET tracer displacement), KRas G12A. The conditions noted are these: TR-FRET tracer displacement, KRas G12A.

The target in assay [16] is T7, KRas^Q61H (Homo sapiens, UniProt P01116, Q61H).
T7 construct: Biotinylated KRas (corresponding to amino acids 1-169, produced at Accelegan Inc.); biotin (biotinylated); purchased Accelegan Inc
T7 sequence (P01116 1-169 isoform P01116-2 Q61H): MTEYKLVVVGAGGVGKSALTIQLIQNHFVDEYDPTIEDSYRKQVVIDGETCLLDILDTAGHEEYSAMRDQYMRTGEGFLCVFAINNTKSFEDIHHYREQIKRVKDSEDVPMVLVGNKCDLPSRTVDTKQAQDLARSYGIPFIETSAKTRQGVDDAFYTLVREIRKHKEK
Put plainly: KRas binding assay (TR-FRET tracer displacement), KRas Q61H. The conditions noted are these: TR-FRET tracer displacement, KRas Q61H.

The target of assay [17] is T8, KRas^G13D (Homo sapiens, UniProt P01116, G13D).
T8 construct: Biotinylated KRas (corresponding to amino acids 1-169, produced at Accelegan Inc.); biotin (biotinylated); purchased Accelegan Inc
T8 sequence (P01116 1-169 isoform P01116-2 G13D): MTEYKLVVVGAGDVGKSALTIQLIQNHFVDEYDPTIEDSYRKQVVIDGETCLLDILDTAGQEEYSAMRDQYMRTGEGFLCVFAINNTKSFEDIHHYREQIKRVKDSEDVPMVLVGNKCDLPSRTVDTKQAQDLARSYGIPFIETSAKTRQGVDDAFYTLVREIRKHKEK
Put plainly: KRas binding assay (TR-FRET tracer displacement), KRas G13D. The conditions noted are these: TR-FRET tracer displacement, KRas G13D.

Assay [18] has as its target T9, KRas^WT (Homo sapiens, UniProt P01116).
T9 construct: Biotinylated KRas (corresponding to amino acids 1-169, produced at Accelegan Inc.); biotin (biotinylated); purchased Accelegan Inc
Put plainly: KRas binding assay (TR-FRET tracer displacement), KRas WT. The following applies: TR-FRET tracer displacement, KRas WT.

T4 sequence (P01116 1-169 isoform P01116-2 G12C): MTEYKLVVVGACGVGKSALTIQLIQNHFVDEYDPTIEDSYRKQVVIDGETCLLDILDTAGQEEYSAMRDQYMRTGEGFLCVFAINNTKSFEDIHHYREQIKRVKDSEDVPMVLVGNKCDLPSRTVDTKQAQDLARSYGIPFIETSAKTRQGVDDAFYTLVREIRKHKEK
T9 sequence (P01116 1-169 isoform P01116-2): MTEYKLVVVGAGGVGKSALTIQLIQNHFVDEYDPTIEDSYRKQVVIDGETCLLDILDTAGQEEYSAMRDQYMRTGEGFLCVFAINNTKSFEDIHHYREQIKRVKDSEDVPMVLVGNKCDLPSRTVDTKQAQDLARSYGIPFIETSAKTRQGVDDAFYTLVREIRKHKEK
T6 sequence (P01116 1-169 isoform P01116-2 G12A): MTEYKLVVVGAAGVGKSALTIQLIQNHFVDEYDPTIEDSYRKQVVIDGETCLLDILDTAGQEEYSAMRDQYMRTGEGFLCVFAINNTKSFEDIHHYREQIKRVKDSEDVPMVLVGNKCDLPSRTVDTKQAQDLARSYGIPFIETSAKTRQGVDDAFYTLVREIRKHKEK

For orientation: IC50 means the concentration at which inhibition is half-maximal. With `CCc1c(F)ccc2cc(O)cc(-c3ncc4c(N5CCC[C@@](C)(O)C5)nc(OC[C@@]56CCCN5C/C(=C\F)C6)nc4c3F)c12` [Example 791, (R)-1-(7-(8-ethyl-7-fluoro-3-hydroxynaphthalen-1-yl)-8-fluoro-2-(((S,Z)-2-(fluoromethylene)tetrahydro-1H-pyrrolizin-7a(5H)-yl)methoxy)pyrido[4,3-d]pyrimidin-4-yl)-3-methylpiperidin-3-ol], the IC50 is 1 nM in [1]; 1 nM in assay [2]; 2 nM in assay [3]; 0.1 nM in assay [4]; less than 2 nM in assay [5]; 1 nM in assay [6]. In addition, the IC50 in assay [7] was 1 nM; in [8], 80 nM; in assay [9] it was less than 2 nM; in [10] it was 2 nM; in [11], 1 nM; in assay [12], less than 2 nM.

`C[C@@]1(O)CCCN(c2nc(OCC34CCCN3CCC4)nc3c(F)c(-c4c(C5CC5)c(Cl)cc5[nH]ncc45)ncc23)C1` [Example 876, (3R)-1-(7-(6-chloro-5-cyclopropyl-1H-indazol-4-yl)-8-fluoro-2-((tetrahydro-1H-pyrrolizin-7a(5H)-yl)methoxy)pyrido[4,3-d]pyrimidin-4-yl)-3-methylpiperidin-3-ol]: the half-maximal inhibitory concentration (IC50) in assay [2] is 561 nM; in assay [13], 9 nM; in assay [14], 13 nM; in [15] it was 14 nM; in assay [16], 18 nM; in assay [17] it was 10 nM. In addition, the IC50 in assay [3] came to 1560 nM; in assay [18] it was 17 nM; in [4], 112 nM; in assay [5] it was 11 nM; in assay [6] it was 661 nM; in assay [7], 1040 nM. Also, the IC50 in assay [8] is greater than 10000 nM; in [9], 10 nM; in assay [10], 1130 nM; in assay [11], 234 nM; in [12], 22 nM.

Consider `C[C@@]1(O)CCCN(c2nc(OC[C@@]34CCCN3C[C@H](F)C4)nc3c(F)c(-c4c(C5CC5)c(Cl)cc5[nH]ncc45)ncc23)C1` [Example 880, (3R)-1-(7-(6-chloro-5-cyclopropyl-1H-indazol-4-yl)-8-fluoro-2-(((2R,7aS)-2-fluorotetrahydro-1H-pyrrolizin-7a(5H)-yl)methoxy)pyrido[4,3-d]pyrimidin-4-yl)-3-methylpiperidin-3-ol], for which the IC50 was found to be 176 nM in assay [2]; 7 nM in assay [13]; 8 nM in assay [14]; 9 nM in assay [15]; 12 nM in [16]; 7 nM in assay [17]. Besides, the half-inhibitory concentration (IC50) came out at 196 nM in [3]; 11 nM in assay [18]; 24 nM in [4]; 6 nM in [5]; 153 nM in assay [6]; 176 nM in [7]. Further, the IC50 in [8] was greater than 10000 nM; in [9], 5 nM; in assay [10], 520 nM; in assay [11], 100 nM; in assay [12] it was 12 nM.

`CN(C)C(=O)c1cc2n(n1)CCCN(c1nc(OC[C@@]34CCCN3C[C@H](F)C4)nc3c(F)c(-c4c(C5CC5)c(Cl)cc5[nH]ncc45)ncc13)C2` [Example 882, 5-(7-(6-chloro-5-cyclopropyl-1H-indazol-4-yl)-8-fluoro-2-(((2R,7aS)-2-fluorotetrahydro-1H-pyrrolizin-7a(5H)-yl)methoxy)pyrido[4,3-d]pyrimidin-4-yl)-N,N-dimethyl-5,6,7,8-tetrahydro-4H-pyrazolo[1,5-a][1,4]diazepine-2-carboxamide]: the IC50 is 4460 nM in [2]; 5 nM in assay [13]; 5 nM in [14]; 9 nM in [15]; 15 nM in [16]; 15 nM in assay [17]. The IC50 in assay [3] was 1300 nM; in [18], 13 nM; in assay [4], 521 nM; in [5] it was 3 nM; in assay [6] it was 677 nM; in assay [7], greater than 10000 nM. Also, the IC50 in assay [8] is greater than 10000 nM; in assay [9], 2 nM; in [10] it was 7110 nM; in assay [11] it was 429 nM; in assay [12] it was 8 nM.

Take `CCc1c(F)ccc2cc(O)cc(-c3ncc4c(N5C[C@@H]6C[C@H](C5)[C@H](O)C6)nc(OC[C@@]56CCCN5C/C(=C\F)C6)nc4c3F)c12` [Example 942, (1R,5R,6R)-3-(7-(8-ethyl-7-fluoro-3-hydroxynaphthalen-1-yl)-8-fluoro-2-(((S,Z)-2-(fluoromethylene)tetrahydro-1H-pyrrolizin-7a(5H)-yl)methoxy)pyrido[4,3-d]pyrimidin-4-yl)-3-azabicyclo[3.2.1]octan-6-ol]: the IC50 stood at 1 nM in [1]; 1 nM in [2]; 1 nM in [3]; 2 nM in assay [6]; 1 nM in assay [7]; 1 nM in [10]. Further, the IC50 in assay [11] was found to be 0.4 nM.

For the compound `C[C@@H]1C[C@@H]1c1c(Cl)cc(O)cc1-c1ncc2c(N3C[C@H]4CC[C@@H](C3)N4)nc(OC[C@@]34CCCN3C/C(=C\F)C4)nc2c1F` [Example 946, 3-(4-((1R,5S)-3,8-diazabicyclo[3.2.1]octan-3-yl)-8-fluoro-2-(((S,Z)-2-(fluoromethylene)tetrahydro-1H-pyrrolizin-7a(5H)-yl)methoxy)pyrido[4,3-d]pyrimidin-7-yl)-5-chloro-4-((1S,2R)-2-methylcyclopropyl)phenol], the IC50 was 229 nM in [1]; 494 nM in assay [2]; 847 nM in assay [3]; 8 nM in assay [6]; 984 nM in assay [7]; 628 nM in assay [10]. This compound displayed a concentration for half-maximal inhibition (IC50) in [11] of 212 nM.
